Measured values published in patent US20260315492A1, “5,6-FUSED BICYCLIC AMIDES AND COMPOSITIONS FOR USE AS 15-PROSTAGLANDIN DEHYDROGENASE MODULATORS” (AMGEN INC., priority 2023, published 2026).

What follows are compounds tested against T1, human recombinant 15-PGDH (Homo sapiens, UniProt P15428) (assay: Inhibition of recombinant 15-PGDH enzymatic activity (NADH quantification after addition of PGE2 and NAD+)). Settings: recombinant 15-PGDH; 15 min pre-incubation, 60-minute reaction, room temperature, pH 7.5; PGE2 and NAD+; read-out: PGDH-Lumi IC50.
T1 sequence (P15428 1-266): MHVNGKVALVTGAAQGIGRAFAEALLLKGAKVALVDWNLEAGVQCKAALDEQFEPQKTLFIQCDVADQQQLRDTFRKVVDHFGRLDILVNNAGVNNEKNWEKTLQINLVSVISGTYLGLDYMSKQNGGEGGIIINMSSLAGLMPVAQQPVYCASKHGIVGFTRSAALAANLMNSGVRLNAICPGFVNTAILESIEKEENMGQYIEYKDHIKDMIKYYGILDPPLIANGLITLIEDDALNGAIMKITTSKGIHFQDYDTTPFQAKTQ
Format: biochemical
Description: The compound dose-response of its inhibition of 15-PGDH activity was determined in human recombinant 15-PGDH enzymatical assays. These assays measured 15-PGDH enzymatic activity by quantifying the amount of NADH produced during a 60-minute reaction initiated by the addition of PGE2 and NAD+. Under the conditions of these experiments, the increase of NADH signal upon oxidation of PGE2 and reduction of NAD+ was linearly proportional to 15-PGDH enzymatic activity. The recombinant human, mouse, rat and dog 15-PGDH enzymatic assays were performed in a 25 μL volume of reaction buffer containing 50 mM Tris, pH 7.5, 0.01% Tween-20 and 100 μM DTT in a 384-well microtiter plate. In concentration-response experiments with tested compounds, 22 concentrations from 2-fold serial dilutions in DMSO were pre-incubated with 15-PGDH for 15 minutes at room temperature. Then, PGE2 and ß-NAD+ were added to initiate the 15-PGDH reaction. After 60 minutes at room temperature, the reaction was quenched and NADH signal was measured using a microtiter plate reader.
The following data (Table 11-1) provides the IC50 of each compound for inhibiting enzymatic activity of recombinant 15-PGDH in the assay described above.

Compound	IC50 [nM]
C[C@H]1COCCN1C(=O)c1cc2c(C3CC3)cc(-c3cnc4nn(C)cc4c3)nc2s1 [Compound B17S, (4-cyclopropyl-6-(2-methyl-2H-pyrazolo[3,4-b]pyridin-5-yl)thieno[2,3-b]pyridin-2-yl)((3S)-3-methyl-4-morpholinyl)methanone]	1.17
C[C@@H]1COCCN1C(=O)c1cc2ccc(-c3ccc(=O)n(C)c3)nc2s1 [Compound B32R, 1-methyl-5-(2-(((3R)-3-methyl-4-morpholinyl)carbonyl)thieno[2,3-b]pyridin-6-yl)-2(1H)-pyridinone]	1350
C[C@H]1COCCN1C(=O)c1cc2ccc(-c3ccc(=O)n(C)c3)nc2s1 [Compound B32S, 1-methyl-5-(2-(((3S)-3-methyl-4-morpholinyl)carbonyl)thieno[2,3-b]pyridin-6-yl)-2(1H)-pyridinone]	623
C[C@@H]1COCCN1C(=O)c1cc2ccc(-c3nccs3)nc2s1 [Compound B33R, ((3R)-3-methyl-4-morpholinyl)(6-(1,3-thiazol-2-yl)thieno[2,3-b]pyridin-2-yl)methanone]	4400
C[C@H]1COCCN1C(=O)c1cc2ccc(-c3nccs3)nc2s1 [Compound B33S, ((3S)-3-methyl-4-morpholinyl)(6-(1,3-thiazol-2-yl)thieno[2,3-b]pyridin-2-yl)methanone]	2650
C[C@H]1COCCN1C(=O)c1cc2ccc(-c3cc(=O)n(C)cn3)nc2s1 [Compound B34S, 3-methyl-6-(2-(((3S)-3-methyl-4-morpholinyl)carbonyl)thieno[2,3-b]pyridin-6-yl)-4(3H)-pyrimidinone]	200
C[C@@H]1COCCN1C(=O)c1cc2ccc(-c3cc(=O)n(C)cn3)nc2s1 [Compound B36R, 3-methyl-6-(2-(((3R)-3-methyl-4-morpholinyl)carbonyl)thieno[2,3-b]pyridin-6-yl)-4(3H)-pyrimidinone]	311
C[C@@H]1COCCN1C(=O)c1cc2ccc(-c3cnc4nn(C)nc4c3)nc2s1 [Compound B43R, ((3R)-3-methyl-4-morpholinyl)(6-(2-methyl-2H-[1,2,3]triazolo[4,5-b]pyridin-6-yl)thieno[2,3-b]pyridin-2-yl)methanone]	40.3
C[C@H]1COCCN1C(=O)c1cc2ccc(-c3cnc4nn(C)nc4c3)nc2s1 [Compound B43S, ((3S)-3-methyl-4-morpholinyl)(6-(2-methyl-2H-[1,2,3]triazolo[4,5-b]pyridin-6-yl)thieno[2,3-b]pyridin-2-yl)methanone]	23.4
C[C@@H]1COCCN1C(=O)c1cc2ccc(-c3cnc4c(c3)nnn4C)nc2s1 [Compound B44R, ((3R)-3-methyl-4-morpholinyl)(6-(3-methyl-3H-[1,2,3]triazolo[4,5-b]pyridin-6-yl)thieno[2,3-b]pyridin-2-yl)methanone]	56.7
C[C@H]1COCCN1C(=O)c1cc2ccc(-c3cnc4c(c3)nnn4C)nc2s1 [Compound B44S, ((3S)-3-methyl-4-morpholinyl)(6-(3-methyl-3H-[1,2,3]triazolo[4,5-b]pyridin-6-yl)thieno[2,3-b]pyridin-2-yl)methanone]	54.2

More lines, now with the values ahead:

IC50 [nM]	Compound
0.475	CN(C(=O)c1cc2c(C3CC3)cc(-c3cnc4nn(C)cc4c3)nc2s1)C1CCC1 [Compound B15, N-cyclobutyl-4-cyclopropyl-N-methyl-6-(2-methyl-2H-pyrazolo[3,4-b]pyridin-5-yl)thieno[2,3-b]pyridine-2-carboxamide]
9.51	Cn1cc2cc(-c3cnc4sc(C(=O)N5CCCCC5)cc4c3)cnc2n1 [Compound B16, (5-(2-methyl-2H-pyrazolo[3,4-b]pyridin-5-yl)thieno[2,3-b]pyridin-2-yl)(1-piperidinyl)methanone]
1.58	CC(C)(C)OC(=O)N1CCN(c2ncc(-c3cc(C4CC4)c4cc(C(=O)N5CCCCC5)sc4n3)cn2)CC1 [Compound B18, 2-methyl-2-propanyl 4-(5-(4-cyclopropyl-2-(1-piperidinylcarbonyl)thieno[2,3-b]pyridin-6-yl)-2-pyrimidinyl)-1-piperazinecarboxylate]
0.853	Cn1cc2cc(-c3cc(C4CC4)c4cc(C(=O)N5CCC(F)(F)CC5)sc4n3)cnc2n1 [Compound B19, (4-cyclopropyl-6-(2-methyl-2H-pyrazolo[3,4-b]pyridin-5-yl)thieno[2,3-b]pyridin-2-yl)(4,4-difluoro-1-piperidinyl)methanone]
1.11	Cn1cc2cc(-c3cc(C4CC4)c4cc(C(=O)N5CCC(C(F)(F)F)CC5)sc4n3)cnc2n1 [Compound B20, (4-cyclopropyl-6-(2-methyl-2H-pyrazolo[3,4-b]pyridin-5-yl)thieno[2,3-b]pyridin-2-yl)(4-(trifluoromethyl)-1-piperidinyl)methanone]
1.45	Cn1cc2cc(-c3ccc4cc(C(=O)N5CCC(C(F)(F)F)CC5)sc4n3)cnc2n1 [Compound B21, (6-(2-methyl-2H-pyrazolo[3,4-b]pyridin-5-yl)thieno[2,3-b]pyridin-2-yl)(4-(trifluoromethyl)-1-piperidinyl)methanone]
3.61	O=C(c1cc2c(C3CC3)cc(-c3cnc(N4CCNCC4)nc3)nc2s1)N1CCCCC1 [Compound B22, (4-cyclopropyl-6-(2-(1-piperazinyl)-5-pyrimidinyl)thieno[2,3-b]pyridin-2-yl)(1-piperidinyl)methanone]
0.215	Cn1cc2cc(-c3cc(C4CC4)c4cc(C(=O)N5CCCCC5)sc4n3)cnc2n1 [Compound B23, (4-cyclopropyl-6-(2-methyl-2H-pyrazolo[3,4-b]pyridin-5-yl)thieno[2,3-b]pyridin-2-yl)(1-piperidinyl)methanone]
0.428	Cn1cc2cc(-c3cc(C4CC4)c4cc(C(=O)N5CCCOCC5)sc4n3)cnc2n1 [Compound B24, (4-cyclopropyl-6-(2-methyl-2H-pyrazolo[3,4-b]pyridin-5-yl)thieno[2,3-b]pyridin-2-yl)(1,4-oxazepan-4-yl)methanone]
0.352	Cn1cc2cc(-c3ccc4cc(C(=O)N5CCC(F)(F)CC5)sc4n3)cnc2n1 [Compound B25, (4,4-difluoro-1-piperidinyl)(6-(2-methyl-2H-pyrazolo[3,4-b]pyridin-5-yl)thieno[2,3-b]pyridin-2-yl)methanone]
1.7	CC1CC(F)(F)CCN1C(=O)c1cc2ccc(-c3cnc4nn(C)cc4c3)nc2s1 (stereo not drawn) [Compound B27]
11.9	Cn1ccc2cc(-c3cnc4sc(C(=O)N5CCCCC5)cc4c3)ccc2c1=O [Compound B28, 2-methyl-6-(2-(1-piperidinylcarbonyl)thieno[2,3-b]pyridin-5-yl)-1(2H)-isoquinolinone]
83.6	Cn1cc2cc(-c3ccc4cc(C(=O)N5CCOCC5(C)C)sc4n3)cnc2n1 [Compound B29, (3,3-dimethyl-4-morpholinyl)(6-(2-methyl-2H-pyrazolo[3,4-b]pyridin-5-yl)thieno[2,3-b]pyridin-2-yl)methanone]
212	Cn1cc2cc(-c3ccc4cc(C(=O)N5CCOCC5C#N)sc4n3)cnc2n1 (stereo not drawn) [Compound B30, 4-((6-(2-methyl-2H-pyrazolo[3,4-b]pyridin-5-yl)thieno[2,3-b]pyridin-2-yl)carbonyl)-3-morpholinecarbonitrile]
1.34	CC1CN(C(=O)c2cc3ccc(-c4cnc5nn(C)cc5c4)nc3s2)CCO1 (stereo not drawn) [Compound B31]
576	Cn1cc(-c2ccc3cc(C(=O)N4CCOCC4)sc3n2)ccc1=O [Compound B35, 1-methyl-5-(2-(4-morpholinylcarbonyl)thieno[2,3-b]pyridin-6-yl)-2(1H)-pyridinone]
2.38	Cn1cc2cc(-c3ccc4cc(C(=O)N5CC6CCC(C5)O6)sc4n3)cnc2n1 [Compound B37, (6-(2-methyl-2H-pyrazolo[3,4-b]pyridin-5-yl)thieno[2,3-b]pyridin-2-yl)(8-oxa-3-azabicyclo[3.2.1]octan-3-yl)methanone]
1330	O=C(c1cc2ccc(-c3nccs3)nc2s1)N1CCOCC1 [Compound B38, 4-morpholinyl(6-(1,3-thiazol-2-yl)thieno[2,3-b]pyridin-2-yl)methanone]
128	Cn1cnc(-c2ccc3cc(C(=O)N4CCOCC4)sc3n2)cc1=O [Compound B39, 3-methyl-6-(2-(4-morpholinylcarbonyl)thieno[2,3-b]pyridin-6-yl)-4(3H)-pyrimidinone]
1.97	Cn1cc2cc(-c3ccc4cc(C(=O)N5CCOC(C)(C)C5)sc4n3)cnc2n1 [Compound B40, (2,2-dimethyl-4-morpholinyl)(6-(2-methyl-2H-pyrazolo[3,4-b]pyridin-5-yl)thieno[2,3-b]pyridin-2-yl)methanone]
641	O=C(c1cc2ccc(-c3ccc(=O)[nH]c3)nc2s1)N1CCOCC1 [Compound B41, 5-(2-(4-morpholinylcarbonyl)thieno[2,3-b]pyridin-6-yl)-2(1H)-pyridinone]
6.33	Cn1nc2cc(-c3ccc4cc(C(=O)N5CCOCC5)sc4n3)cnc2n1 [Compound B42, (6-(2-methyl-2H-[1,2,3]triazolo[4,5-b]pyridin-6-yl)thieno[2,3-b]pyridin-2-yl)(4-morpholinyl)methanone]
